For the assay, the target named is full-length WDR5, C-terminal NanoLuc fusion (WDR5-C) (Homo sapiens, UniProt P61964). In words: NanoBRET tracer titration. It counts as cell-based. In general terms: BRET reads energy transfer from a luciferase to a nearby fluorophore.

This note sets out measurements from publication doi:10.1101/2021.04.12.439490v1 (biorxiv, 2021).

The Kd is the concentration at which binding is half-saturated. Higher therefore signals weaker binding. Consider `CN1CCN(c2ccc(-c3ccc(C(=O)NCCCOCCOCCOCCCNC(=O)CCc4ccc5n4[B-](F)(F)[N+]4=C(c6ccc[nH]6)C=CC4=C5)cc3)cc2NC(=O)c2c[nH]c(=O)cc2C(F)(F)F)CC1` [19c], for which the Kd is approximately 1 µM.
